Results published in PMC12171880, “Selectivity and Safety Characterization of a Xanthine–Imidazothiazole Lead Structure: a Novel Tryptophan Hydroxylase Inhibitor of Peripheral Serotonin Synthesis” (ACS Pharmacology & Translational Science, 2025).
pIC50: −log10 of the molar value.

Assays:
human recombinant TPH2 = target: T1, human recombinant TPH2 (Homo sapiens, UniProt Q8IWU9); assay: TPH2 enzymatic activity assay (fluorescence, 96-well); format: biochemical
T1 construct: Full-length human TPH1 and TPH2 (UniProt entries P17752 and Q8IWU9); MBP (N); made in house
T1 sequence (Q8IWU9 1-490): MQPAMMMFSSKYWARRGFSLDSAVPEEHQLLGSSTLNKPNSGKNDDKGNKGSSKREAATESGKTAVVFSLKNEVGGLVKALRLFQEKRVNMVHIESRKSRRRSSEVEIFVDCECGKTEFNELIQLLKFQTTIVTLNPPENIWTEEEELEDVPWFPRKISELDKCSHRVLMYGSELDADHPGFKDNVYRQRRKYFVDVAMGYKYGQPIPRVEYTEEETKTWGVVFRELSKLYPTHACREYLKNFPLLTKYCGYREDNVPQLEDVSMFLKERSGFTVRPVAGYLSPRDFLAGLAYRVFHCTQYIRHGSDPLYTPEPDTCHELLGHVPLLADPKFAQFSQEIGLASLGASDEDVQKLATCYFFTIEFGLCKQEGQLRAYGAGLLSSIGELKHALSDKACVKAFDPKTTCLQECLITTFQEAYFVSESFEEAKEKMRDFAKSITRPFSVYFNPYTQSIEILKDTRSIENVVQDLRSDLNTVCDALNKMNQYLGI

human recombinant PAH = target: T2, human recombinant PAH (Homo sapiens, UniProt P00439); assay: PAH enzymatic activity assay (fluorescence, 96-well); format: biochemical
T2 construct: expression vectors for full-length human PAH (UniProt entry P00439); made in house; host or cells: E. coli T7 Express (NEB) with pRARE2
T2 sequence (P00439 1-452): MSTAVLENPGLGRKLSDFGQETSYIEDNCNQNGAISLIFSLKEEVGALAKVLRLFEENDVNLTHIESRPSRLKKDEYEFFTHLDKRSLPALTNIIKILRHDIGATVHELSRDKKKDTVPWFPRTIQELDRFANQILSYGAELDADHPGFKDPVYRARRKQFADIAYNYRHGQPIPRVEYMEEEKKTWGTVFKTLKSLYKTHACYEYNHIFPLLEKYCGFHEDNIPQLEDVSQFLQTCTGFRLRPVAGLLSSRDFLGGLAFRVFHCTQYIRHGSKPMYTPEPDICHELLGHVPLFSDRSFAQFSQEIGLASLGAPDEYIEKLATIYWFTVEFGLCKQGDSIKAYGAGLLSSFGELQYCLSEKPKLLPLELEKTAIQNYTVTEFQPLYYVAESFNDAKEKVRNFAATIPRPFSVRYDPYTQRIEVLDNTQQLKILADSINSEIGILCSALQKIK

recombinant human TH = target: T3, recombinant human TH (Homo sapiens, UniProt P07101); assay: TH enzymatic activity assay (fluorescence, 96-well); format: biochemical
T3 construct: For purification of MBP-tagged full-length PAH and TH; made in house; host or cells: E. coli T7 Express (NEB) with pRARE2
T3 sequence (P07101 whole entry): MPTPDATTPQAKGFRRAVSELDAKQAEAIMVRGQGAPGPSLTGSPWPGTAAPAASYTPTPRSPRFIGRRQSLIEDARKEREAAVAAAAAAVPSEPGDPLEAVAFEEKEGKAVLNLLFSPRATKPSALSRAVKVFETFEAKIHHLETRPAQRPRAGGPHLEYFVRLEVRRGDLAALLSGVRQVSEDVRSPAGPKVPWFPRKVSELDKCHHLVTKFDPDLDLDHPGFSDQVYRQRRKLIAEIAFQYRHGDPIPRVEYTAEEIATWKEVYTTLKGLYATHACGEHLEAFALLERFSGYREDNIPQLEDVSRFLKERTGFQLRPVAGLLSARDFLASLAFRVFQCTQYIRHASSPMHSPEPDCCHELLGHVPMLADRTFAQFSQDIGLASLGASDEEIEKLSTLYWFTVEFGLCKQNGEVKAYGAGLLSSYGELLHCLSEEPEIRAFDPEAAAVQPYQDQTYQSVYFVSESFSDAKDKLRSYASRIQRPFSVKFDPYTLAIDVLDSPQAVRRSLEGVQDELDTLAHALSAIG
Experimental: The TH enzymatic activity assay was performed using a 96-well plate format (Greiner). […] To initiate the reaction, L-Tyr (Fluka) was added (final concentration, 30 μM). The assay contained positive control samples (complete reaction mix, no inhibitor test compound), negative control samples (reaction mix without BH4), and an additional L-Tyr control (reaction mix without BH4, spiked with 25.5 μM or 27 μM L-Tyr) to measure the progression of the enzymatic reaction. All samples were measured in technical triplicates. The TH assay was performed at RT for 30 min. Depletion of the reaction substrate (L-Tyr) was continuously monitored at 240 s intervals by fluorescence measurements (ex.280 nm/em.306 nm) for 12 min using a Tecan Infinite 200 plate reader.
Negative control values (no enzyme or no substrate) were deducted from the positive control (full enzyme activity) and test compound values. Subsequently, the data were normalized (Pos. Ctr. = 100% of the enzyme activity). The results were further analyzed with GraphPad Prism 9 using the nonlinear regression model: log(inhibitor) vs. response−variableslope(fourparameters) which fits the following equation to the data: Y=Bottom+(Top−Bottom)/(1+10^((logIC50−X)×HillSlope))
The IC50 values were calculated from three independent experiments and are given as the mean ± SD.

5-HT2A receptor = tested on: 5-HT2A receptor; design: method as in EMA/508026/2017; details: 10 μM; ref EMA/508026/2017; cited from earlier work
human recombinant TPH1 = target: T4, human recombinant TPH1 (Homo sapiens, UniProt P17752); assay: TPH1 enzymatic activity assay (fluorescence, 96-well); format: biochemical
T4 construct: Full-length human TPH1 and TPH2 (UniProt entries P17752 and Q8IWU9); MBP (N); made in house
T4 sequence (P17752 1-444): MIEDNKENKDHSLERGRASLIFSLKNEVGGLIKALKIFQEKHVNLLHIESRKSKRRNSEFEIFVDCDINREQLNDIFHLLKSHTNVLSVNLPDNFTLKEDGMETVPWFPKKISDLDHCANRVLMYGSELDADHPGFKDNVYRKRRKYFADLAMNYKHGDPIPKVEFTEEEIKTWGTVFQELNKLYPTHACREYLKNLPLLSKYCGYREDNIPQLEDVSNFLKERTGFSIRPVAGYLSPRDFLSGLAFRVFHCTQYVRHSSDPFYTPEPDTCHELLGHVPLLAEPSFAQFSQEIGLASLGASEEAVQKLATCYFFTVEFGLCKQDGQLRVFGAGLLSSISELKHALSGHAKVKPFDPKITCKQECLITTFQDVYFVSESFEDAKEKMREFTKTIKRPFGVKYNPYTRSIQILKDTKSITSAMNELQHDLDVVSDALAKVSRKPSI

A3 receptor = tested on: A3 receptor; design: method as in EMA/508026/2017; details: 10 μM; ref EMA/508026/2017; cited from earlier work
5-HT1B receptor = tested on: 5-HT1B receptor; design: method as in EMA/508026/2017; details: 10 μM; ref EMA/508026/2017; cited from earlier work
[1] = tested on: 75 human receptors, enzymes, and ion channels; design: method as in EMA/508026/2017; details: ref EMA/508026/2017; cited from earlier work
[2] = 10 nM to 30 μM, 175 μM L-Phe, 10 μM BH4

Cc1ccn(-c2cc(Cl)ccc2[C@@H](Oc2cc(-c3ccc(C[C@H](N)C(=O)O)cc3)nc(N)n2)C(F)(F)F)n1 [LP778902, Telotristat]
Mean TPH2 activity [%] (human recombinant TPH2; 3 nM): 99.93% | Mean TPH2 activity [%] (human recombinant TPH2; 10 nM): 100.78% | Mean TPH2 activity [%] (human recombinant TPH2; 30 nM): 99.88% | Mean TPH2 activity [%] (human recombinant TPH2; 100 nM): 97.93% | Mean TPH2 activity [%] (human recombinant TPH2; 300 nM): 92.18% | Mean TPH2 activity [%] (human recombinant TPH2; 1 μM): 10.61% | Mean TPH2 activity [%] (human recombinant TPH2; 3 μM): 3.90% | Mean TPH2 activity [%] (human recombinant TPH2; 10 μM): 3.17% | Mean PAH activity [%] (human recombinant PAH; 10 nM): 99.68% | pIC50 (human recombinant PAH; [2]): 5.57 | Mean PAH activity [%] (human recombinant PAH; 30 nM): 96.34% | Mean PAH activity [%] (human recombinant PAH; 100 nM): 95.74% | Mean PAH activity [%] (human recombinant PAH; 300 nM): 92.85% | Mean PAH activity [%] (human recombinant PAH; 1 μM): 79.01% | Mean PAH activity [%] (human recombinant PAH; 3 μM): 42.58% | Mean PAH activity [%] (human recombinant PAH; 10 μM): 18.22% | Mean PAH activity [%] (human recombinant PAH; 30 μM): 7.18% | pIC50 (human recombinant PAH; supplementary CSV): 5.57 | Mean TH activity [%] (recombinant human TH; 10 nM): 91.23% | pIC50 (recombinant human TH; 10 nM to 30 μM, 30 μM L-Tyr, 5 μM BH4): 5.09 | Mean TH activity [%] (recombinant human TH; 30 nM): 96.35% | Mean TH activity [%] (recombinant human TH; 100 nM): 91.73% | Mean TH activity [%] (recombinant human TH; 300 nM): 96.86% | Mean TH activity [%] (recombinant human TH; 1 μM): 89.03% | Mean TH activity [%] (recombinant human TH; 3 μM): 79.57% | Mean TH activity [%] (recombinant human TH; 10 μM): 43.11% | Mean TH activity [%] (recombinant human TH; 30 μM): 14.34% | inhibition at 5-HT2A receptor (5-HT2A receptor): more than 50% | Mean TPH1 activity [%] (human recombinant TPH1; 3 nM): 99.75% | Mean TPH1 activity [%] (human recombinant TPH1; 10 nM): 100.85% | Mean TPH1 activity [%] (human recombinant TPH1; 30 nM): 101.72% | Mean TPH1 activity [%] (human recombinant TPH1; 100 nM): 100.00% | Mean TPH1 activity [%] (human recombinant TPH1; 300 nM): 91.38% | Mean TPH1 activity [%] (human recombinant TPH1; 1 μM): 12.20% | Mean TPH1 activity [%] (human recombinant TPH1; 3 μM): 4.78% | Mean TPH1 activity [%] (human recombinant TPH1; 10 μM): 5.34% | inhibition at A3 receptor (A3 receptor): more than 50% | inhibition at 5-HT1B receptor (5-HT1B receptor): more than 50%

CCOC(=O)[C@@H](N)Cc1ccc(-c2cc(O[C@H](c3ccc(Cl)cc3-n3ccc(C)n3)C(F)(F)F)nc(N)n2)cc1 [LX1606, Telotristat ethyl]
number of 75 receptors with over 50% of the activity inhibited [1]: 16 | Mean PAH activity [%] (human recombinant PAH; 10 nM): 96.86% | pIC50 (human recombinant PAH; [2]): 5.10 | Mean PAH activity [%] (human recombinant PAH; 30 nM): 97.35% | Mean PAH activity [%] (human recombinant PAH; 300 nM): 94.55% | Mean PAH activity [%] (human recombinant PAH; 1 μM): 91.16% | Mean PAH activity [%] (human recombinant PAH; 3 μM): 64.20% | Mean PAH activity [%] (human recombinant PAH; 10 μM): 37.02% | Mean PAH activity [%] (human recombinant PAH; 30 μM): 33.74% | PAH activity, not reduced below (human recombinant PAH; highest tested concentration (30 μM)): ≥ 30% | pIC50 (human recombinant PAH; supplementary CSV): 5.10 | Mean TH activity [%] (recombinant human TH; 10 nM): 94.16% | Mean TH activity [%] (recombinant human TH; 30 nM): 93.57% | Mean TH activity [%] (recombinant human TH; 100 nM): 94.52% | Mean TH activity [%] (recombinant human TH; 300 nM): 91.31% | Mean TH activity [%] (recombinant human TH; 1 μM): 96.27% | Mean TH activity [%] (recombinant human TH; 3 μM): 96.83% | Mean TH activity [%] (recombinant human TH; 10 μM): 87.53% | Mean TH activity [%] (recombinant human TH; 30 μM): 71.72% | reduction of TH activity compared to the positive control (recombinant human TH; two highest concentrations (10 and 30 μM)): ≤ 30% | pIC50 (human recombinant TPH1; 3 nM to 10 μM, 15 μM L-Trp, 20 μM BH4): 5.84
